In experiment [1] the target is Casein kinase I isoform gamma-3 (Homo sapiens) (UniProt Q9Y6M4).
The target of experiment [2] is T1, Mitogen-activated protein kinase kinase kinase 5 (Homo sapiens) (UniProt Q99683).
T1 sequence (whole entry): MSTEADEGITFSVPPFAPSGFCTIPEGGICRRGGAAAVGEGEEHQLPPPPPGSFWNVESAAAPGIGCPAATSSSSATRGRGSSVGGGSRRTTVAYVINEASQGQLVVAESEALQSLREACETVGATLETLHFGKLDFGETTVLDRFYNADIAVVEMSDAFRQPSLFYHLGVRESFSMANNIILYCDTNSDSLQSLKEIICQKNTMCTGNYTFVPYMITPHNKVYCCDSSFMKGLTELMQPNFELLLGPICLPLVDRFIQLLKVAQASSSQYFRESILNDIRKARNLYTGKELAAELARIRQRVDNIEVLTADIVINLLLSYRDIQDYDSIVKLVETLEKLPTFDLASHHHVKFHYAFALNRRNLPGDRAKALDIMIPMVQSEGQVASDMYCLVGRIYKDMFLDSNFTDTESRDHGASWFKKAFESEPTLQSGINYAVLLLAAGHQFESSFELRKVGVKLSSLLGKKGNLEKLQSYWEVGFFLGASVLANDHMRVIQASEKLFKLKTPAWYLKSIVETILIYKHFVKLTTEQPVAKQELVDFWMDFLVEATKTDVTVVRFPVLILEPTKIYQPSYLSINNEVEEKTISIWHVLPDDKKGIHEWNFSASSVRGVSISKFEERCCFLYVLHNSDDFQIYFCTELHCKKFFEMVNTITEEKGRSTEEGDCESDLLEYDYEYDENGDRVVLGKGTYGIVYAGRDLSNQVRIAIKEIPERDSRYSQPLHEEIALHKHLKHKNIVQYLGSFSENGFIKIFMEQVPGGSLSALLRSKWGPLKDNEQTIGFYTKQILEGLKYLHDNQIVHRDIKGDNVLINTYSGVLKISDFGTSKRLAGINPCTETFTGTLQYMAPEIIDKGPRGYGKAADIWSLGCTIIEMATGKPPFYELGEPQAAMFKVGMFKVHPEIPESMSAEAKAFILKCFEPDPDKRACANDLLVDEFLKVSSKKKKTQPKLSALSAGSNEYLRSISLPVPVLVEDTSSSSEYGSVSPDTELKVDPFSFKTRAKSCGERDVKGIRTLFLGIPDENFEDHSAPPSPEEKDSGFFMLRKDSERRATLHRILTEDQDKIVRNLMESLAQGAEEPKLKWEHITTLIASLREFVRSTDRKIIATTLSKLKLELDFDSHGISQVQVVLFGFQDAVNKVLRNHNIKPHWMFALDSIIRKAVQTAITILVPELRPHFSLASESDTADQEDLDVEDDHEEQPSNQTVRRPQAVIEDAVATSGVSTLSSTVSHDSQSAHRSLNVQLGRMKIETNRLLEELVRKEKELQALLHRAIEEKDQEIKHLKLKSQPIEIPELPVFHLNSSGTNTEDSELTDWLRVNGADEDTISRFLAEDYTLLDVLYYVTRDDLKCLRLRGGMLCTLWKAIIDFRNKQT

For experiment [3], the target named is T2, 3-phosphoinositide-dependent protein kinase 1 (Homo sapiens) (UniProt O15530).
T2 sequence (whole entry): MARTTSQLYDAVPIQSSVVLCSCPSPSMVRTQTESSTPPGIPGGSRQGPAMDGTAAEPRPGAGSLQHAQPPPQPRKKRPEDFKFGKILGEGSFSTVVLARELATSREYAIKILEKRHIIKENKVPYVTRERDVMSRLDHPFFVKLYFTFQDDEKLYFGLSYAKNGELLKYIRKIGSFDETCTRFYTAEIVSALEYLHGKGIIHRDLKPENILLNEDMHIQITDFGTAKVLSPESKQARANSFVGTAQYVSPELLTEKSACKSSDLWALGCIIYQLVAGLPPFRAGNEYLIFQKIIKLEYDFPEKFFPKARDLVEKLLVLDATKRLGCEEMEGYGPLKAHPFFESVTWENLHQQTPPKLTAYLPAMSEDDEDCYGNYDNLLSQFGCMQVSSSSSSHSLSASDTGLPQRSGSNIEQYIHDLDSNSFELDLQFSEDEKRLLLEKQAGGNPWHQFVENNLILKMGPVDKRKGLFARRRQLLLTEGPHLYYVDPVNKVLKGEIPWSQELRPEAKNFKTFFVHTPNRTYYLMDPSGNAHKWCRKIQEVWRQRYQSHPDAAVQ

Experiment [4] has as its target Serine/threonine-protein kinase Nek6 (Homo sapiens) (UniProt Q9HC98).
In experiment [5] the target is Serine/threonine-protein kinase Chk2 (Homo sapiens, UniProt O96017).
Experiment [6] deals with Casein kinase I isoform gamma-2 (Homo sapiens) (UniProt P78368).
The target of experiment [7] is Ribosomal protein S6 kinase alpha-3 (Homo sapiens) (UniProt P51812).
For experiment [8], the target named is T3, Serine/threonine-protein kinase 4 (Homo sapiens) (UniProt Q13043).
T3 sequence (whole entry): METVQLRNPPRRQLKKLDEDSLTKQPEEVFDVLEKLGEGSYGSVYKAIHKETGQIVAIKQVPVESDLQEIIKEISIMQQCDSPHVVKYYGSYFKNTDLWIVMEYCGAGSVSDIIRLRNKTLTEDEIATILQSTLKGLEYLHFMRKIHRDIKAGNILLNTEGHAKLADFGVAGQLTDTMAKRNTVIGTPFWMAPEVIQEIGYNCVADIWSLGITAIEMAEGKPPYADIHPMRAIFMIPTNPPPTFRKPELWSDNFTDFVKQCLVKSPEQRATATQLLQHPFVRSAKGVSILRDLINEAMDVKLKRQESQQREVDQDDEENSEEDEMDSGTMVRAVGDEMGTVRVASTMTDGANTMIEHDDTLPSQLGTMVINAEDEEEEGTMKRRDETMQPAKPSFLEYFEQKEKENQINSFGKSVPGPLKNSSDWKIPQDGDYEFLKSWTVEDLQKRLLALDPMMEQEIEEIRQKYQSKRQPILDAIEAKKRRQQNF

The target of experiment [9] is Dual specificity mitogen-activated protein kinase kinase 2 (Homo sapiens, UniProt P36507).
Chain of Dual specificity mitogen-activated protein kinase kinase 2 (P36507 whole entry): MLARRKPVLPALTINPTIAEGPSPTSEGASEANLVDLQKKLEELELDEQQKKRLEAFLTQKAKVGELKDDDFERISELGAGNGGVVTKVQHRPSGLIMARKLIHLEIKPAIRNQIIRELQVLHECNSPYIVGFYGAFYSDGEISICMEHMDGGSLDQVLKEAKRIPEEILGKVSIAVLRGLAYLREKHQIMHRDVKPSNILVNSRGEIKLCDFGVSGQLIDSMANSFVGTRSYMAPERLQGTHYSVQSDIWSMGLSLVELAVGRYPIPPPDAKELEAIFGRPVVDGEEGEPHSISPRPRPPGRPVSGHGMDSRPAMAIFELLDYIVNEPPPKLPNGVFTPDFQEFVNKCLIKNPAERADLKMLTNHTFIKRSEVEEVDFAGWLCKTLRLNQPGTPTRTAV

Chain of Casein kinase I isoform gamma-2 (Homo sapiens) (P78368 whole entry, looked up, canonical isoform): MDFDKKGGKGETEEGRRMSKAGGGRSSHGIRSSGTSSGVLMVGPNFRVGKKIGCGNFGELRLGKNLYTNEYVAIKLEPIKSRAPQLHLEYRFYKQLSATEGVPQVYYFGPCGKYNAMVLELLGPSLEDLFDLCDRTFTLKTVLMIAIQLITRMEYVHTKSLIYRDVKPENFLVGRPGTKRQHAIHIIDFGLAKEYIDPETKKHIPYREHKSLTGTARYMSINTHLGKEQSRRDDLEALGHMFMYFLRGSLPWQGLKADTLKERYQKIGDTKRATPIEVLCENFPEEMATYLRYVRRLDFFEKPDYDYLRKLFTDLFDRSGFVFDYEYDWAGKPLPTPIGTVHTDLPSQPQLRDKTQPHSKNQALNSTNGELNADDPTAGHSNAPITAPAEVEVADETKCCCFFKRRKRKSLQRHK
Chain of Ribosomal protein S6 kinase alpha-3 (Homo sapiens) (P51812 whole entry): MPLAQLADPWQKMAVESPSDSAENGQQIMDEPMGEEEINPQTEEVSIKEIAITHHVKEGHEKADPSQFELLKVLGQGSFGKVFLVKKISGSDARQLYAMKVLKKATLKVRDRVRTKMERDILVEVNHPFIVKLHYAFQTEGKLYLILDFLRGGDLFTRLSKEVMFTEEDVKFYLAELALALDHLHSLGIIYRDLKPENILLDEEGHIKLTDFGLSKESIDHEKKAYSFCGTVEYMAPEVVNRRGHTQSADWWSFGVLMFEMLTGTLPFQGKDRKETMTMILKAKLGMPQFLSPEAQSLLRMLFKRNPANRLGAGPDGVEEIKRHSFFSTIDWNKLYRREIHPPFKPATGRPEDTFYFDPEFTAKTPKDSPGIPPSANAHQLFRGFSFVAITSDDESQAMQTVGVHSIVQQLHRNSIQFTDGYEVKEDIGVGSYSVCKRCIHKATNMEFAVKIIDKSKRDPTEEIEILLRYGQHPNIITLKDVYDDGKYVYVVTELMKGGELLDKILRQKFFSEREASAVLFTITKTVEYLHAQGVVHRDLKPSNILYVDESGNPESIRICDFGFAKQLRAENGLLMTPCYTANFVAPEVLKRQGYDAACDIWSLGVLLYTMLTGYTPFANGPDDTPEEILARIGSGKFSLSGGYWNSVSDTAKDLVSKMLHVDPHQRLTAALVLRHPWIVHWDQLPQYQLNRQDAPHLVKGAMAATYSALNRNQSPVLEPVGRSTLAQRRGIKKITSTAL
Chain of Serine/threonine-protein kinase Chk2 (O96017 whole entry, canonical isoform): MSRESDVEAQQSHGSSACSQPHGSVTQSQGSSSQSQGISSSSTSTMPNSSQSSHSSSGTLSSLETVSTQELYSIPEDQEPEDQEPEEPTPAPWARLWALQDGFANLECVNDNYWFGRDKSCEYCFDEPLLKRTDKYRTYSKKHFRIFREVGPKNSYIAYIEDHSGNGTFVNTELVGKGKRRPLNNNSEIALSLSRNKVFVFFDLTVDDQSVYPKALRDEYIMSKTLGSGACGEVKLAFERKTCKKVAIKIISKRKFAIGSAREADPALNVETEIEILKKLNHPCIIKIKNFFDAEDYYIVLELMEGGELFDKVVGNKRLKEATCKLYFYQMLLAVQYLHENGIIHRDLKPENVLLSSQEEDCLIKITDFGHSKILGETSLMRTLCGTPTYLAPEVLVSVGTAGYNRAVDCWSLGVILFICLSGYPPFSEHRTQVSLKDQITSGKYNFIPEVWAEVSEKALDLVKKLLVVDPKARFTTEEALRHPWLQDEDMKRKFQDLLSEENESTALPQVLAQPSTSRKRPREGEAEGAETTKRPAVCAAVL
Chain of Casein kinase I isoform gamma-3 (Homo sapiens) (Q9Y6M4 whole entry, looked up, canonical isoform): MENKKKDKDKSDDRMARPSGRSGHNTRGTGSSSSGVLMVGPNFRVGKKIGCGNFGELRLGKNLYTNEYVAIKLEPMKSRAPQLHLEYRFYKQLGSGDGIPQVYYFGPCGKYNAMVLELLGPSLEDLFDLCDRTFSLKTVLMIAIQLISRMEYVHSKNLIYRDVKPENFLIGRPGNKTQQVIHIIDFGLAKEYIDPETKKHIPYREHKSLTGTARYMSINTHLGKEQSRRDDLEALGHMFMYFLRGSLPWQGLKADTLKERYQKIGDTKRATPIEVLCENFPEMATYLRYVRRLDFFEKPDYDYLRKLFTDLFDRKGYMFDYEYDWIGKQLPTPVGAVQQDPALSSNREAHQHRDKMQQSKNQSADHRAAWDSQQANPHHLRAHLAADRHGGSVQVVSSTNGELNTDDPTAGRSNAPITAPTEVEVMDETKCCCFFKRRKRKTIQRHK
Chain of Serine/threonine-protein kinase Nek6 (Homo sapiens) (Q9HC98 whole entry): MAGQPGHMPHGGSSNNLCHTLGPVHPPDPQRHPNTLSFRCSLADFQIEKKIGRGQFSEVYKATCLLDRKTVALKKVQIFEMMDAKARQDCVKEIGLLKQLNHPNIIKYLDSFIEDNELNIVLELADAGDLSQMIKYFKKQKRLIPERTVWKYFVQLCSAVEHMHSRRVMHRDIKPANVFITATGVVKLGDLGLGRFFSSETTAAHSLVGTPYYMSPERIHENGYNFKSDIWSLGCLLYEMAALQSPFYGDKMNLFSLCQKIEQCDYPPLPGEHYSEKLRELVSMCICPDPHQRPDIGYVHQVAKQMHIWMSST

For `O=C1Nc2ccc(I)cc2/C1=C\c1cc(Br)c(O)c(Br)c1`, the ΔTm is 0 °C in experiment [1]; 1.7 °C in [2]; -1 °C in [3]; 0 °C in experiment [4]; 0.1 °C in experiment [5]; 1.1 °C in experiment [6]. Further, the ΔTm in experiment [7] came out at 5.1 °C; in experiment [8] it was 4.1 °C; in experiment [9], 0.2 °C.

For `O=c1c(-c2ccc(F)cc2)c(-c2ccncc2)[nH]n1-c1ccc(Cl)cc1`, the ΔTm in experiment [1] was 0.5 °C; in experiment [2] it was 0.6 °C; in experiment [3] it was -1.2 °C; in experiment [4], 0.8 °C; in experiment [5] it was 0.3 °C; in experiment [6], 0.7 °C. Besides, the results for the ΔTm in experiment [7], in experiment [8] and in experiment [9] were 0 °C, 1.8 °C and 1.9 °C, respectively.

On to `Oc1cccc(-c2nc(N3CCOCC3)c3oc4ncccc4c3n2)c1`, for which the thermal shift (ΔTm) in [1] is 0.1 °C; in experiment [2], -0.4 °C; in experiment [3] it was 0.1 °C; in experiment [4], 0.4 °C; in experiment [5], 1.4 °C; in [6], 0.1 °C. The results for the ΔTm in experiment [7], in experiment [8] and in experiment [9] were -0.6 °C, -0.1 °C and 0.3 °C, respectively.

As for `O=c1cc(N2CCOCC2)oc2c(-c3ccccc3)cccc12`, the ΔTm is 0.7 °C in experiment [1]; 0.3 °C in [2]; 0 °C in experiment [3]; -0.5 °C in experiment [4]; -0.4 °C in [5]; 0.4 °C in experiment [6]. Moreover, the ΔTm in experiment [7] is 0.2 °C; in experiment [8], 0.6 °C; in experiment [9], -0.3 °C.

`O=c1sn(Cc2ccccc2)c(=S)n1Cc1ccccc1`: the ΔTm is 0.4 °C in experiment [1]; 0.2 °C in [2]; 0 °C in experiment [3]; 0.1 °C in [4]; 0.3 °C in experiment [5]; 0.2 °C in experiment [6]. Besides, the ΔTm is -0.4 °C in experiment [7], 0.9 °C in experiment [8] and 0 °C in experiment [9].

Consider `O=C1Nc2ccc(I)cc2/C1=C1/Nc2ccccc2/C1=N\O`, for which the ΔTm in [1] is 1.8 °C; in [2] it was 5.7 °C; in experiment [3], -0.3 °C; in [4], -2 °C; in experiment [5] it was 1.9 °C; in experiment [6] it was 1.9 °C. Also, the ΔTm in experiment [7] turned out to be 3.3 °C; in experiment [8] it was 9.5 °C; in experiment [9], 6.4 °C.

Regarding `NC1=NC(=O)/C(=C2\CCNC(=O)c3[nH]c(Br)cc32)N1` [HYMENIALDISINE], the ΔTm is 3.5 °C in experiment [1]; 10.4 °C in experiment [2]; -0.2 °C in [3]; 0 °C in experiment [4]; 8.2 °C in [5]; 5.6 °C in experiment [6]. Besides, the ΔTm worked out at 6.3 °C in experiment [7], 5.2 °C in [8] and 2 °C in [9].

For the compound `O=C(O)/C=C/c1cc(CO)ccc1CO`, the ΔTm is 0.4 °C in experiment [1]; 1.2 °C in experiment [2]; 0 °C in [3]; -0.2 °C in [4]; 0.6 °C in experiment [5]; 0.4 °C in experiment [6]. For the same compound, the ΔTm was 0.3 °C in [7], 0 °C in experiment [8] and -0.1 °C in experiment [9].

As for `CC(C)c1cc(/C=C(\C#N)C(=O)NCCCc2ccccc2)cc(C(C)C)c1O`, the ΔTm in [1] was 0.7 °C; in [2], 0.3 °C; in experiment [3], -0.5 °C; in [4], 0.9 °C; in experiment [5], -0.1 °C; in experiment [6], 0.5 °C. The ΔTm in experiment [7] is 0.2 °C; in [8], 2.6 °C; in [9], 0.3 °C.

Consider `Ic1cccc(CSc2nnc(-c3ccncc3)o2)c1`, for which the ΔTm was 0.4 °C in experiment [1]; 0.8 °C in experiment [2]; -0.6 °C in experiment [3]; -0.8 °C in experiment [4]; -0.9 °C in [5]; 0.5 °C in [6]. Besides, the ΔTm in [7] is 0 °C; in experiment [8], -0.4 °C; in [9] it was -0.8 °C.

For the origin of these results see ChEMBL document CHEMBL1145498, “A systematic interaction map of validated kinase inhibitors with Ser/Thr kinases” (Proc Natl Acad Sci U S A, 2007).
